Results on four molecules are retold here after publication doi:10.1101/2024.12.18.629081v1 (biorxiv, 2024).

For test [1], the target named is FGFR3 (Homo sapiens, UniProt P22607). The test is described as follows: SPR. Format: binding.
For test [2], the target named is T1, GCK (Homo sapiens, UniProt P35557).
T1 sequence (P35557 1-465): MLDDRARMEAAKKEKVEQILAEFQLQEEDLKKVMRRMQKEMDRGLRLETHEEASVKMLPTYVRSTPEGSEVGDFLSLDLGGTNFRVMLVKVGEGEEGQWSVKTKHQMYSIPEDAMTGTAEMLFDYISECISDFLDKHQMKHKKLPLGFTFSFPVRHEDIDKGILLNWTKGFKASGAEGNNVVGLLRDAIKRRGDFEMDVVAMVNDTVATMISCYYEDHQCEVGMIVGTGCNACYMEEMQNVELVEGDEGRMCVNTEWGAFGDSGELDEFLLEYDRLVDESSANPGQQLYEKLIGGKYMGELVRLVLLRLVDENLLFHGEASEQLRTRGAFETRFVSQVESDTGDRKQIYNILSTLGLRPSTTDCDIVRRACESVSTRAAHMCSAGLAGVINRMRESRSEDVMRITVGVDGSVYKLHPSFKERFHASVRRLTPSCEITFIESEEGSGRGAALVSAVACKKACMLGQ
Briefly: G6PDH-coupled activation assay, A340. Format: biochemical.

SMILES strings stand for the structures.

FGFR3, sequence (P22607 449-759): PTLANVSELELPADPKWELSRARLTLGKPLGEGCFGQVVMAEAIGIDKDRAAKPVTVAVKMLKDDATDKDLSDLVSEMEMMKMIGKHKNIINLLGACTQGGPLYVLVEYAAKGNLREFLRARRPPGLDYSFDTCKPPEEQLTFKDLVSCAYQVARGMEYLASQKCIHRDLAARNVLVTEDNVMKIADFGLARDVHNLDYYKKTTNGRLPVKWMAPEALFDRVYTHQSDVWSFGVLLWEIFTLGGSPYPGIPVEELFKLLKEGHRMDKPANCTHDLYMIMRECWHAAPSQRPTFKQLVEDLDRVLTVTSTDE

For the molecule `Nc1nc2c(s1)[C@H](c1ccccc1OCc1ccc(Cl)cc1)CC(=O)N2` [F42], in test [1], the Kd (as a rule, a measure of binding affinity in units of concentration) was 61.4 µM.

As to `Cc1cccc(Nc2ccc(Sc3nnc[nH]3)nc2C(=O)Nc2nccs2)c1` [G11], the EC50 (in general, the concentration needed to bring the measured effect to its halfway point) in test [2] was determined as 0.15 µM.

`Nc1nc2c(s1)[C@H](c1ccc(F)cc1)CC(=O)N2` [F4] gave a Kd in test [1] of 599 µM.

In turn, `CNc1ccc(Sc2nnc[nH]2)nc1C(=O)Nc1nccs1` [G0] came in with an EC50 in test [2] of 1.81 ± 0.28 µM.
